Data taken from the supplement of paper PMC11208160.

Assay: recombinant barcode read abundance after kanamycin selection (control-corrected) (log10(CPM+1)); higher = more efficient recombination; sequences stand for … in AGTGCAGAGAAAATCGGCCAGTTTTCTCTGCCTGCAGTCCGCATGCCGT…AGATTTATGCAGCGGACTGCCTTTCTCCCAAAGTGATAAACCGGACAGTATCATGGACCGGTTTTCCCGGTAATCCGTATTTGCAAGGTTGGTTTCACT; site = the 11-nt target
Protocol: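 Pooled E. coli target-specificity screen for the IS621 bridge recombinase. Each library plasmid pairs an 11-nt target (CT core) with a bridge RNA whose target-binding loop (9-nt LTG + 4-nt RTG) is reprogrammed; the rest of the 177-nt WT IS621 bridge RNA scaffold is fixed. The plasmid is co-electroporated with a WT donor plasmid; recombinase is induced with 0.1 mM IPTG and recombinants are selected on kanamycin. Recombinant barcodes are sequenced, converted to CPM, averaged over two biological replicates and corrected by the unselected control CPM. Molecule = full bridge RNA written as DNA: LTG = specificity nt 1-9, RTG = reverse complement of specificity nt 8-11, in the WT scaffold.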
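Also: IS621 recombinase and bridge RNA in Escherichia coli cells.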

Sequence	recombinant barcode read abundance (log10)
AATTAAGCTTGGGTTCTAACCTGTTGCCT (site AATTGAGCTAG)	0.088
AATTAAGCTTGGGTTCTAACCTGTTGCCT (site AATTTAGCTAG)	0.223
AATTCACCTTGGGTTCTAACCTGTTGCCT (site AATTCACCTAG)	0.454
AATTCACCTTGGGTTCTAACCTGTTGCCT (site CATTCACCTAG)	0.0863
AATTCACCTTGGGTTCTAACCTGTTGCCT (site GATTCACCTAG)	0.0262
AATTCACCTTGGGTTCTAACCTGTTGCCT (site TATTCACCTAG)	0.129
AATTCAGCTTGGGTTCTAACCTGTTGCCT (site AATTAAGCTAG)	0.0713
AATTCAGCTTGGGTTCTAACCTGTTGCCT (site AATTCAGCTAG)	0.26
AATTCAGCTTGGGTTCTAACCTGTTGCCT (site AATTGAGCTAG)	0.164
AATTCAGCTTGGGTTCTAACCTGTTGCCT (site AATTTAGCTAG)	0.0408
AATTCGGCTTGGGTTCTAACCTGTTGCCT (site AATTCGGCTAG)	0.305
AATTCGGCTTGGGTTCTAACCTGTTGCCT (site ACTGCGGCTAG)	0.407
AATTGTCCTTGGGTTCTAACCTGTTGCAT (site AATTGTCCTAA)	0.296
AATTGTCCTTGGGTTCTAACCTGTTGCAT (site AATTGTCCTAC)	0.102
AATTGTCCTTGGGTTCTAACCTGTTGCAT (site AATTGTCCTAG)	0.0432
AATTGTCCTTGGGTTCTAACCTGTTGCAT (site AATTGTCCTAT)	0.249
AATTGTCCTTGGGTTCTAACCTGTTGCCT (site AATTGTCCTAA)	0.411
AATTGTCCTTGGGTTCTAACCTGTTGCCT (site AATTGTCCTAC)	0.0374
AATTGTCCTTGGGTTCTAACCTGTTGCCT (site AATTGTCCTAG)	0.407
AATTGTCCTTGGGTTCTAACCTGTTGCCT (site AATTGTCCTAT)	0.0177
AATTTGACTTGGGTTCTAACCTGTTGCCT (site AAATTGACTAG)	0.218
AATTTGACTTGGGTTCTAACCTGTTGCCT (site AACTTGACTAG)	0.0252

Sequence	recombinant barcode read abundance (log10)
AATTTGACTTGGGTTCTAACCTGTTGCCT (site AAGTTGACTAG)	0.115
AATTTGACTTGGGTTCTAACCTGTTGCCT (site AATTTGACTAG)	0.576
ACAAGAGCTTGGGTTCTAACCTGTTGCCT (site ACAAGAGCTAG)	1.07
ACAAGAGCTTGGGTTCTAACCTGTTGCCT (site ACCAGAGCTAG)	0.266
ACAAGAGCTTGGGTTCTAACCTGTTGCCT (site ACGAGAGCTAG)	0.0837
ACAAGAGCTTGGGTTCTAACCTGTTGCCT (site ACTAGAGCTAG)	0.133
ACAATACCTTGGGTTCTAACCTGTTGCCG (site ACAATACCTCG)	0.408
ACAATACCTTGGGTTCTAACCTGTTGCCG (site ACAATAGCTAG)	0.51
ACAATCTCTTGGGTTCTAACCTGTTGCTC (site ACAATCTCTGA)	1.22
ACAATCTCTTGGGTTCTAACCTGTTGCTC (site CACCAGACTTG)	0.066
ACACACCCTTGGGTTCTAACCTGTTGCGG (site ACACACCCTCC)	2.53
ACACACCCTTGGGTTCTAACCTGTTGCGG (site ACGCACGCTCC)	0.0353
ACACGAGCTTGGGTTCTAACCTGTTGCAG (site ACACGAGCTCT)	1.3
ACACGAGCTTGGGTTCTAACCTGTTGCAG (site TGCGATACTAA)	0.326
ACACGGACTTGGGTTCTAACCTGTTGCTA (site ACACGGACTTA)	1.38
ACACGGACTTGGGTTCTAACCTGTTGCTA (site GTGGTACCTAT)	0.0282
ACACTCCCTTGGGTTCTAACCTGTTGCCT (site AAGCTCCCTAG)	0.415
ACACTCCCTTGGGTTCTAACCTGTTGCCT (site ACACTCCCTAG)	0.294
ACACTCCCTTGGGTTCTAACCTGTTGCTG (site ACACACTCTCA)	0.104
ACACTCCCTTGGGTTCTAACCTGTTGCTG (site ACACTCCCTCA)	2.14
ACACTGTCTTGGGTTCTAACCTGTTGCGG (site ACAATGTCTCC)	0.0253
ACACTGTCTTGGGTTCTAACCTGTTGCGG (site ACACTGTCTCC)	1.49

Sequence	recombinant barcode read abundance (log10)
ACACTGTCTTGGGTTCTAACCTGTTGCGG (site ACAGTGTCTCC)	0.379
ACACTGTCTTGGGTTCTAACCTGTTGCGG (site ACATTGTCTCC)	0.429
ACAGAGGCTTGGGTTCTAACCTGTTGCCG (site ACAGAGGCTCG)	1.12
ACAGAGGCTTGGGTTCTAACCTGTTGCCG (site ACTCAGGCTCG)	0.155
ACAGCCGCTTGGGTTCTAACCTGTTGCCT (site ACAGACGCTAG)	0.221
ACAGCCGCTTGGGTTCTAACCTGTTGCCT (site ACAGCCGCTAG)	1.46
ACAGCCGCTTGGGTTCTAACCTGTTGCCT (site ACAGGCGCTAG)	0.108
ACAGCCGCTTGGGTTCTAACCTGTTGCCT (site ACAGTCGCTAG)	0.118
ACAGCTTCTTGGGTTCTAACCTGTTGCCT (site ACAGCTACTAG)	0.0838
ACAGCTTCTTGGGTTCTAACCTGTTGCCT (site ACAGCTTCTAG)	1.53
ACAGGCGCTTGGGTTCTAACCTGTTGCCT (site ACAGACGCTAG)	0.858
ACAGGCGCTTGGGTTCTAACCTGTTGCCT (site ACAGCCGCTAG)	0.617
ACAGGCGCTTGGGTTCTAACCTGTTGCCT (site ACAGGCGCTAG)	0.673
ACAGGCGCTTGGGTTCTAACCTGTTGCCT (site ACAGTCGCTAG)	0.0488
ACAGGTGCTTGGGTTCTAACCTGTTGCCT (site ACAGGTGCTAG)	1.98
ACAGGTGCTTGGGTTCTAACCTGTTGCCT (site ACATGTGCTAG)	0.0807
ACAGTAGCTTGGGTTCTAACCTGTTGCTG (site ACAATAGCTCA)	0.181
ACAGTAGCTTGGGTTCTAACCTGTTGCTG (site ACACTAGCTCA)	0.0586
ACAGTAGCTTGGGTTCTAACCTGTTGCTG (site ACAGTAGCTCA)	1.87
ACAGTAGCTTGGGTTCTAACCTGTTGCTG (site ACATTAGCTCA)	0.0402
ACAGTCGCTTGGGTTCTAACCTGTTGCCT (site ACAGACGCTAG)	0.229
ACAGTCGCTTGGGTTCTAACCTGTTGCCT (site ACAGCCGCTAG)	0.0854
